{
  "source": "patent US9457033B2",
  "about": "“Steroid alkaloids and uses thereof as antimicrobial agents against electron transport-deficient microbes and as potentiators for antimicrobial agents against pathogenic bacteria” (priority 2011, dated 2016)",
  "key": {"S. aureus ATCC 29213 [1]": {"system": "S. aureus ATCC 29213", "assay": "MICs of control antibiotics for macromolecular biosynthesis assays", "type": "cell-based", "settings": "Staphylococcus aureus, ATCC29213; ATCC 29213; data not shown; read-out: MIC"}, "[2]": {"system": "protein, DNA, RNA and cell wall peptidoglycan biosynthesis in ATCC 29213", "assay": "Macromolecular biosynthesis assay, incorporation of radiolabeled precursors", "type": "cell-based, Staphylococcus aureus", "settings": "control antibiotics at approximately 4×MIC; FIG. 3A"}, "S. aureus ATCC 29213 [3]": {"system": "S. aureus ATCC 29213", "assay": "MIC, microdilution in CAMHB 24 h, with or without tomatidine/compound", "type": "cell-based, Staphylococcus aureus", "settings": "ATCC 29213; for MIC: Staphylococcus aureus, ATCC29213"}, "S. aureus 8325-4": {"system": "S. aureus 8325-4", "assay": "MIC, microdilution in CAMHB 24 h", "type": "cell-based, Staphylococcus aureus", "settings": "Staphylococcus aureus, 83254; 8325-4; Laboratory strain; read-out: MIC"}, "S. aureus Newbould": {"system": "S. aureus Newbould", "assay": "MIC, microdilution in CAMHB 24 h", "type": "cell-based, Staphylococcus aureus", "settings": "Staphylococcus aureus; Newbould; Cow (mastitis); read-out: MIC"}, "S. aureus SHY97-3906": {"system": "S. aureus SHY97-3906", "assay": "MIC, microdilution in CAMHB 24 h", "type": "cell-based, Staphylococcus aureus", "settings": "Staphylococcus aureus, SHY973906; SHY97-3906; Cow (mastitis); read-out: MIC"}, "S. aureus Newman": {"system": "S. aureus Newman", "assay": "MIC, microdilution in CAMHB 24 h", "type": "cell-based, Staphylococcus aureus", "settings": "Staphylococcus aureus; Newman; Human (Osteo); read-out: MIC"}, "S. aureus MRSA COL": {"system": "S. aureus MRSA COL", "assay": "MIC, microdilution in CAMHB 24 h", "type": "cell-based, Staphylococcus aureus", "settings": "Staphylococcus aureus; MRSA COL; Human (SSTI); read-out: MIC"}, "S. aureus Mu50": {"system": "S. aureus Mu50", "assay": "MIC, microdilution in CAMHB 24 h", "type": "cell-based, Staphylococcus aureus", "settings": "Staphylococcus aureus; Mu50; Human (SSTI); MRSA, VISA; read-out: MIC"}, "S. aureus Sa220c": {"system": "S. aureus Sa220c", "assay": "MIC, microdilution in CAMHB 24 h", "type": "cell-based, Staphylococcus aureus", "settings": "Staphylococcus aureus; Sa220c; Human (SSTI); MRSA; read-out: MIC"}, "S. aureus Sa228c": {"system": "S. aureus Sa228c", "assay": "MIC, microdilution in CAMHB 24 h", "type": "cell-based, Staphylococcus aureus", "settings": "Staphylococcus aureus, MRSA"}, "S. aureus CF1A-L": {"system": "S. aureus CF1A-L", "assay": "MIC, microdilution in CAMHB 24 h", "type": "cell-based, Staphylococcus aureus", "settings": "Staphylococcus aureus, CF1AL; CF1A-L; Human (CF lungs); read-out: MIC"}, "S. aureus CF2A-L": {"system": "S. aureus CF2A-L", "assay": "MIC, microdilution in CAMHB 24 h", "type": "cell-based", "settings": "Staphylococcus aureus, CF2AL; CF2A-L; Human (CF lungs); read-out: MIC"}, "S. aureus CF4B-L": {"system": "S. aureus CF4B-L", "assay": "MIC, microdilution in CAMHB 24 h", "type": "cell-based, Staphylococcus aureus", "settings": "Staphylococcus aureus, CF4BL; CF4B-L; Human (CF lungs); read-out: MIC"}, "S. aureus CF6B-L": {"system": "S. aureus CF6B-L", "assay": "MIC, microdilution in CAMHB 24 h", "type": "cell-based, Staphylococcus aureus", "settings": "Staphylococcus aureus, CF6BL; CF6B-L; Human (CF lungs); read-out: MIC"}, "S. aureus CF7A-L": {"system": "S. aureus CF7A-L", "assay": "MIC, microdilution in CAMHB 24 h", "type": "cell-based, Staphylococcus aureus", "settings": "Staphylococcus aureus; CF7A-L; Human (CF lungs); MRSA; read-out: MIC"}, "S. aureus CF8E-L": {"system": "S. aureus CF8E-L", "assay": "MIC, microdilution in CAMHB 24 h", "type": "cell-based, Staphylococcus aureus", "settings": "Staphylococcus aureus, CF8EL; CF8E-L; Human (CF lungs); read-out: MIC"}, "S. aureus CF9A-L": {"system": "S. aureus CF9A-L", "assay": "MIC, microdilution in CAMHB 24 h", "type": "cell-based, Staphylococcus aureus", "settings": "Staphylococcus aureus; CF9A-L; Human (CF lungs); MRSA; read-out: MIC"}, "S. aureus CF35A-L": {"system": "S. aureus CF35A-L", "assay": "MIC, microdilution in CAMHB 24 h", "type": "cell-based, Staphylococcus aureus", "settings": "Staphylococcus aureus; CF35A-L; Human (CF lungs); MRSA; read-out: MIC"}, "S. aureus CF07-L": {"system": "S. aureus CF07-L", "assay": "MIC, microdilution in CAMHB 24 h", "type": "cell-based, Staphylococcus aureus", "settings": "Staphylococcus aureus, CF07L; CF07-L; Human (CF lungs); read-out: MIC"}},
  "data": [
    {"smiles": "O=C(N[C@H](CO)[C@H](O)c1ccc([N+](=O)[O-])cc1)C(Cl)Cl", "note": "[chloramphenicol]", "values": [
      {"measurement": "MIC", "setting": "S. aureus ATCC 29213 [1]", "result": "8 to 16", "unit": "µg/mL"},
      {"measurement": "incorporation of radiolabeled precursors into the targeted macromolecules", "setting": "[2]", "result": "preferentially inhibited"}
    ]},
    {"smiles": "CCn1cc(C(=O)O)c(=O)c2cc(F)c(N3CCNCC3)cc21", "note": "[Norfloxacin, norfloxacin]", "values": [
      {"measurement": "MIC", "setting": "S. aureus ATCC 29213 [1]", "result": 1, "unit": "µg/mL"},
      {"measurement": "incorporation of radiolabeled precursors into the targeted macromolecules", "setting": "[2]", "result": "preferentially inhibited"},
      {"measurement": "Fold (−TO/+TO)", "setting": "S. aureus ATCC 29213 [3]; tomatidine at 8 μg/ml", "result": 1, "unit": "fold"},
      {"measurement": "MIC", "setting": "S. aureus ATCC 29213 [3]; Human (SSTI), read-out: MIC", "result": "1 to 2", "unit": "µg/mL"},
      {"measurement": "MIC", "setting": "S. aureus ATCC 29213 [3]; absence of tomatidine, read-out: MIC −TO", "result": "1 to 2", "unit": "µg/mL"},
      {"measurement": "MIC", "setting": "S. aureus ATCC 29213 [3]; presence of tomatidine at 8 μg/ml, read-out: MIC +TO", "result": "1 to 2", "unit": "µg/mL"},
      {"measurement": "MIC", "setting": "S. aureus 8325-4", "result": "1 to 2", "unit": "µg/mL"},
      {"measurement": "MIC", "setting": "S. aureus Newbould", "result": 0.5, "unit": "µg/mL"},
      {"measurement": "MIC", "setting": "S. aureus SHY97-3906", "result": "0.5 to 1", "unit": "µg/mL"},
      {"measurement": "MIC", "setting": "S. aureus Newman", "result": 1, "unit": "µg/mL"},
      {"measurement": "MIC", "setting": "S. aureus MRSA COL", "result": "2 to 4", "unit": "µg/mL"},
      {"measurement": "MIC", "setting": "S. aureus Mu50", "result": "> 64", "unit": "µg/mL"},
      {"measurement": "MIC", "setting": "S. aureus Sa220c", "result": "> 64", "unit": "µg/mL"},
      {"measurement": "MIC", "setting": "S. aureus Sa228c", "result": "> 64", "unit": "µg/mL"},
      {"measurement": "MIC", "setting": "S. aureus CF1A-L", "result": 1, "unit": "µg/mL"},
      {"measurement": "MIC", "setting": "S. aureus CF2A-L", "result": "0.5 to 1", "unit": "µg/mL"},
      {"measurement": "MIC", "setting": "S. aureus CF4B-L", "result": 1, "unit": "µg/mL"},
      {"measurement": "MIC", "setting": "S. aureus CF6B-L", "result": "> 64", "unit": "µg/mL"},
      {"measurement": "MIC", "setting": "S. aureus CF7A-L", "result": "> 64", "unit": "µg/mL"},
      {"measurement": "MIC", "setting": "S. aureus CF8E-L", "result": 4, "unit": "µg/mL"},
      {"measurement": "MIC", "setting": "S. aureus CF9A-L", "result": "> 64", "unit": "µg/mL"},
      {"measurement": "MIC", "setting": "S. aureus CF35A-L", "result": "> 64", "unit": "µg/mL"},
      {"measurement": "MIC", "setting": "S. aureus CF07-L", "result": "1 to 2", "unit": "µg/mL"}
    ]}
  ]
}
